Data reported in patent US6177404A (Merck & Co., Inc., priority 1998, dated 2001).

Each compound was assayed on free PSA (assay: not given). Conditions: not given.
For “Ac-SerTyrGln.vertline.SerSerThrGlu-amide”, the cleaved bond was “Gln-Ser”.
For “Ac-AlaSerTyrGln.vertline.SerSerLeu-amide”, the cleaved bond was “Gln-Ser”.
For Ac-hArgTyrGln.vertline.SerSerSer(MeLeu), the cleaved bond was “Gln-Ser”.
“Ac-AlaAsnGluIleSerTyrGln.vertline.SerAlaSerThrGlu-amide” was tested, and the cleaved bond was “Gln-Ser”.
In the case of “Ac-hArg(Cha)Gln.vertline.SerSerSer(ethylester-Leu)”, the cleaved bond is reported as “Gln-Ser”.
In the case of “Ac-AsnLysIleSerTyrGln.vertline.SerSer-amide”, the cleaved bond is reported as “Gln-Ser”.
For “Ac-AlaAsnLysAlaSerTyrGln.vertline.SerAlaSerThrGlu-amide”, the cleaved bond was “Gln-Ser”.
With “Ac-AlaAsnLysIleSerTyrGln.vertline.SerAlaSerThrGlu-amide” the cleaved bond was “Gln-Ser”.
“Ac-AlaAsnLysIleSerTyrGln.vertline.SerAlaLysThrGlu-amide” was tested, and the cleaved bond was “Gln-Ser”.
“Ac-AlaAsnLysIleSerTyrGln.vertline.SerThrGlu-amide” was tested, and the cleaved bond was “Gln-Ser”.
In the case of “Ac-AlaAsnLysIleSerTyrGln.vertline.SerSerThrGlu-amide”, the cleaved bond is reported as “Gln-Ser”.
“Ac-AlaAsnSerTyrGln.vertline.SerSerSerThrGlu-amide” was tested, and the cleaved bond was “Gln-Ser”.
“Ac-AlaAsnLysIleSerTyrGln.vertline.SerSerSerThrLeu” was tested, and the cleaved bond was “Gln-Ser”.
“Ac-SerTyrGln.vertline.SerSerSerThrGlu-amide” was tested, and the cleaved bond was “Gln-Ser”.
“Ac-AlaAsnLysAlaSerTyrGln.vertline.SerAlaSerCys-amide” was tested, and the cleaved bond was “Gln-Ser”.
With “Ac-AlaAsnLysSerTyrGln.vertline.SerSerThrGlu-amide” the cleaved bond was “Gln-Ser”.
For “Ac-AlaSerTyrGln.vertline.SerSerThrGlu-amide”, the cleaved bond was “Gln-Ser”.
In the case of “Ac-AlaSerTyrGln.vertline.SerSerSerThrGlu-amide”, the cleaved bond is reported as “Gln-Ser”.
“Ac-AlaAsnLysIleSerTyrTyr.vertline.SerSerSerThrGlu-amide” was tested, and the cleaved bond was “Tyr-Ser”.
In the case of “Ac-AlaAsnLysIleSerTyrGln.vertline.SerSerSerThrGlu-amide”, the cleaved bond is reported as “Gln-Ser”.
With “Ac-AlaAsnLysIleSerTyrGln.vertline.SerSerGlnThrGlu-amide” the cleaved bond was “Gln-Ser”.
“Ac-LysIleSerTyrGln.vertline.SerSer-amide” was tested, and the cleaved bond was “Gln-Ser”.
“Ac-AlaAspLysAlaLysTyrGln.vertline.SerSer(Cha)-NHNH2” was tested, and the cleaved bond was “Gln-Ser”.
In the case of “Ac-AlaAsnLysIleSerTyrGln.vertline.SerSerLysThrGlu-amide”, the cleaved bond is reported as “Gln-Ser”.
“Ac-AlaAsnLysIleSerTyrTyr.vertline.SerAlaSerThrGlu-amide” was tested, and the cleaved bond was “Tyr-Ser”.
“AlaAsnLysIleSerTyrGln.vertline.SerSerSerThrGlu-amide” was tested, and the cleaved bond was “Gln-Ser”.
In the case of “Ac-AlaAsnLysIleSerTyrGln.vertline.SerSerSerThrLeu-amide”, the cleaved bond is reported as “Gln-Ser”.
For “Ac-hArgTyrGln.vertline.SerSerSer(Ethylester-Leu)”, the cleaved bond was “Gln-Ser”.

What follows are compounds tested on LNCaP prostate tumor cells (assay: In vitro Alamar Blue cytotoxicity assay of non-cleavable oligopeptide-doxorubicin conjugates). Conditions: FIG. 4 legend, cells incubated 3 days at 37° C., cell line not named in legend (LNCaP or DuPRO in method).
Assay type: cell-based, human
Description: The cytotoxicities of the non-cleaveable oligopeptide-doxorubicin conjugates, prepared as described in Example 4, against a line of cells which is known to be killed by unmodified doxorubicin were assessed with an Alamar Blue assay. Specifically, cell cultures of LNCaP prostate tumor cells, which are a human metastatic prostate adenocarcinoma isolated from a needle biopsy of a lymph node (LNCaP.FGC: American Type Culture Collection, ATCC CRL 1740), or DuPRO cells in 96 well plates were diluted with medium containing various concentrations of a given conjugate (final plate well volume of 200 μl). The cells were incubated for 3 days at 37° C. and then 20 μl of Alamar Blue was added to the assay well. The cells were further incubated and the assay plates were read on a EL-310 ELISA reader at the dual wavelengths of 570 and 600 nm at 4 and 7 hours after addition of Alamar Blue. Relative percentage viability at the various concentration of conjugate tested was then calculated versus control (no conjugate) cultures. Cytotoxicities of unmodified doxorubicin and unmodified oligopeptide were also assessed.
Work on `COc1cccc2c1C(=O)c1c(O)c3c(c(O)c1C2=O)C[C@@](O)(C(=O)CO)C[C@@H]3O[C@H]1C[C@H](N)[C@H](O)[C@H](C)O1` [doxorubicin] yielded an EC50 of 300 nM.
